The supplement of paper PMC11208160

Experiment: recombinant barcode read abundance after kanamycin selection (control-corrected) (log10(CPM+1)); higher = more efficient recombination; sequences stand for … in AGTGCAGAGAAAATCGGCCAGTTTTCTCTGCCTGCAGTCCGCATGCCGT…AGATTTATGCAGCGGACTGCCTTTCTCCCAAAGTGATAAACCGGACAGTATCATGGACCGGTTTTCCCGGTAATCCGTATTTGCAAGGTTGGTTTCACT; site = the 11-nt target
Procedure: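 Pooled E. coli target-specificity screen for the IS621 bridge recombinase. Each library plasmid pairs an 11-nt target (CT core) with a bridge RNA whose target-binding loop (9-nt LTG + 4-nt RTG) is reprogrammed; the rest of the 177-nt WT IS621 bridge RNA scaffold is fixed. The plasmid is co-electroporated with a WT donor plasmid; recombinase is induced with 0.1 mM IPTG and recombinants are selected on kanamycin. Recombinant barcodes are sequenced, converted to CPM, averaged over two biological replicates and corrected by the unselected control CPM. Molecule = full bridge RNA written as DNA: LTG = specificity nt 1-9, RTG = reverse complement of specificity nt 8-11, in the WT scaffold.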
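Also: IS621 recombinase and bridge RNA in Escherichia coli cells.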

Row | Sequence | recombinant barcode read abundance (log10)
1 | AACTTAACTTGGGTTCTAACCTGTTGCCT (site AACTAAACTAG) | 0.236
2 | AACTTAACTTGGGTTCTAACCTGTTGCCT (site AACTCAACTAG) | 0.0571
3 | AACTTAACTTGGGTTCTAACCTGTTGCCT (site AACTGAACTAG) | 0.09
4 | AACTTAACTTGGGTTCTAACCTGTTGCCT (site AACTTAACTAG) | 0.531
5 | AACTTCGCTTGGGTTCTAACCTGTTGCCT (site AACTTCACTAG) | 0.114
6 | AACTTCGCTTGGGTTCTAACCTGTTGCCT (site AACTTCCCTAG) | 0.00931
7 | AACTTCGCTTGGGTTCTAACCTGTTGCCT (site AACTTCGCTAG) | 0.423
8 | AACTTCGCTTGGGTTCTAACCTGTTGCCT (site AACTTCTCTAG) | 0.269
9 | AACTTGACTTGGGTTCTAACCTGTTGCCT (site AAATTGACTAG) | 0.248
10 | AACTTGACTTGGGTTCTAACCTGTTGCCT (site AACTTGACTAG) | 0.731
11 | AACTTGACTTGGGTTCTAACCTGTTGCCT (site AAGTTGACTAG) | 0.0706
12 | AACTTGACTTGGGTTCTAACCTGTTGCCT (site AATTTGACTAG) | 0.232
13 | AAGAACTCTTGGGTTCTAACCTGTTGCCG (site AAGAACTCTCG) | 2.1
14 | AAGAACTCTTGGGTTCTAACCTGTTGCCG (site GTTTCAACTAC) | 0.0172
15 | AAGATACCTTGGGTTCTAACCTGTTGCTG (site AAGATACCTAA) | 0.283
16 | AAGATACCTTGGGTTCTAACCTGTTGCTG (site AAGATACCTCA) | 1.76
17 | AAGATATCTTGGGTTCTAACCTGTTGCCT (site AAGATATCTAG) | 1.86
18 | AAGATATCTTGGGTTCTAACCTGTTGCCT (site ACGATATCTAG) | 0.119
19 | AAGATATCTTGGGTTCTAACCTGTTGCCT (site AGGATATCTAG) | 0
20 | AAGATATCTTGGGTTCTAACCTGTTGCCT (site ATGATATCTAG) | 0.0647
21 | AAGCACCCTTGGGTTCTAACCTGTTGCAG (site AAGCACCCTCT) | 2.59

Row | Sequence | recombinant barcode read abundance (log10)
22 | AAGCACCCTTGGGTTCTAACCTGTTGCAG (site TAGCACTCTCT) | 0.311
23 | AAGCACCCTTGGGTTCTAACCTGTTGCTG (site AAGCACCCTCA) | 2.02
24 | AAGCACCCTTGGGTTCTAACCTGTTGCTG (site CCTGCGACTGT) | 0.276
25 | AAGCCTACTTGGGTTCTAACCTGTTGCTA (site AAGCCTACTTA) | 1.27
26 | AAGCCTACTTGGGTTCTAACCTGTTGCTA (site GAGCCTACTTA) | 0.0396
27 | AAGGCCTCTTGGGTTCTAACCTGTTGCAT (site AAGGCCTCTAT) | 2.93
28 | AAGGCCTCTTGGGTTCTAACCTGTTGCAT (site AAGGCCTCTTG) | 0.247
29 | AAGGCTACTTGGGTTCTAACCTGTTGCCT (site AAGGCTACTAG) | 0.304
30 | AAGGCTACTTGGGTTCTAACCTGTTGCCT (site AAGGCTTCTAG) | 0.144
31 | AAGGTACCTTGGGTTCTAACCTGTTGCGG (site AAGGTACCTCC) | 2.69
32 | AAGGTACCTTGGGTTCTAACCTGTTGCGG (site GTCACTACTAT) | 0.0994
33 | AAGGTCACTTGGGTTCTAACCTGTTGCCT (site AAGGTCACTAG) | 2.24
34 | AAGGTCACTTGGGTTCTAACCTGTTGCCT (site ACGGTCACTAG) | 0.816
35 | AAGGTCACTTGGGTTCTAACCTGTTGCCT (site AGGGTCACTAG) | 0.0802
36 | AAGGTCACTTGGGTTCTAACCTGTTGCCT (site ATGGTCACTAG) | 0.361
37 | AAGGTCACTTGGGTTCTAACCTGTTGCTG (site AAGGTCACTCA) | 2.52
38 | AAGGTCACTTGGGTTCTAACCTGTTGCTG (site GTACATCCTAC) | 0.0968
39 | AAGTCCACTTGGGTTCTAACCTGTTGCCT (site AAGTCCACTAG) | 0.934
40 | AAGTCCACTTGGGTTCTAACCTGTTGCCT (site ATTTCCACTAG) | 0.027
41 | AAGTCTCCTTGGGTTCTAACCTGTTGCAG (site AAGTCTCCTCT) | 0.174
42 | AAGTCTCCTTGGGTTCTAACCTGTTGCAG (site GCAATATCTAG) | 0.116

Row | Sequence | recombinant barcode read abundance (log10)
43 | AAGTCTCCTTGGGTTCTAACCTGTTGCCT (site AAGACTCCTAG) | 0.134
44 | AAGTCTCCTTGGGTTCTAACCTGTTGCCT (site AAGTCTCCTAG) | 0.64
45 | AAGTGAGCTTGGGTTCTAACCTGTTGCAG (site AAGTGAGCTCT) | 2.69
46 | AAGTGAGCTTGGGTTCTAACCTGTTGCAG (site AATAGAGCTCT) | 0.12
47 | AAGTGGACTTGGGTTCTAACCTGTTGCCT (site AAGTCGACTAG) | 0.121
48 | AAGTGGACTTGGGTTCTAACCTGTTGCCT (site AAGTGGACTAG) | 1.93
49 | AAGTTAGCTTGGGTTCTAACCTGTTGCGG (site AAGTTAGCTCC) | 2.28
50 | AAGTTAGCTTGGGTTCTAACCTGTTGCGG (site GGCAACTCTAG) | 0.108
51 | AAGTTGACTTGGGTTCTAACCTGTTGCCT (site AAATTGACTAG) | 0.378
52 | AAGTTGACTTGGGTTCTAACCTGTTGCCT (site AACTTGACTAG) | 0.248
53 | AAGTTGACTTGGGTTCTAACCTGTTGCCT (site AAGTTGACTAG) | 1.57
54 | AAGTTGACTTGGGTTCTAACCTGTTGCCT (site AATTTGACTAG) | 0.304
55 | AATAACCCTTGGGTTCTAACCTGTTGCCT (site AATAACCCTAG) | 1.2
56 | AATAACCCTTGGGTTCTAACCTGTTGCCT (site ACTAACCCTAG) | 0.145
57 | AATAACCCTTGGGTTCTAACCTGTTGCCT (site AGTAACCCTAG) | 0.146
58 | AATAACCCTTGGGTTCTAACCTGTTGCCT (site ATTAACCCTAG) | 0.0794
59 | AATAGCTCTTGGGTTCTAACCTGTTGCCT (site AATAGCTCTAG) | 0.82
60 | AATAGCTCTTGGGTTCTAACCTGTTGCCT (site CATAGCTCTAG) | 0.0982
61 | AATAGCTCTTGGGTTCTAACCTGTTGCCT (site GATAGCTCTAG) | 0.166
62 | AATAGCTCTTGGGTTCTAACCTGTTGCCT (site TATAGCTCTAG) | 0.116
63 | AATATCTCTTGGGTTCTAACCTGTTGCCA (site AATATCTCTTG) | 0.278

Row | Sequence | recombinant barcode read abundance (log10)
64 | AATATCTCTTGGGTTCTAACCTGTTGCCA (site CTACCTACTCC) | 0.144
65 | AATATGCCTTGGGTTCTAACCTGTTGCCT (site AATATGCCTAG) | 0.582
66 | AATATGCCTTGGGTTCTAACCTGTTGCCT (site AATCTCCCTAG) | 0.0372
67 | AATGCTTCTTGGGTTCTAACCTGTTGCCT (site AATGCTTCTAG) | 1.05
68 | AATGCTTCTTGGGTTCTAACCTGTTGCCT (site AATTGTTCTAG) | 0.167
69 | AATGGGACTTGGGTTCTAACCTGTTGCCT (site AATGGGACTAG) | 1.72
70 | AATGGGACTTGGGTTCTAACCTGTTGCCT (site AATGGGCCTAG) | 0.171
71 | AATGGGACTTGGGTTCTAACCTGTTGCCT (site AATGGGGCTAG) | 0.222
72 | AATGGGACTTGGGTTCTAACCTGTTGCCT (site AATGGGTCTAG) | 0.0882
73 | AATGGGGCTTGGGTTCTAACCTGTTGCCT (site AATGGGACTAG) | 0.369
74 | AATGGGGCTTGGGTTCTAACCTGTTGCCT (site AATGGGCCTAG) | 0.189
75 | AATGGGGCTTGGGTTCTAACCTGTTGCCT (site AATGGGGCTAG) | 0.79
76 | AATGGGGCTTGGGTTCTAACCTGTTGCCT (site AATGGGTCTAG) | 0.274
77 | AATGTATCTTGGGTTCTAACCTGTTGCCT (site AATGAATCTAG) | 0
78 | AATGTATCTTGGGTTCTAACCTGTTGCCT (site AATGCATCTAG) | 0.0382
79 | AATGTATCTTGGGTTCTAACCTGTTGCCT (site AATGGATCTAG) | 0.0435
80 | AATGTATCTTGGGTTCTAACCTGTTGCCT (site AATGTATCTAG) | 1.17
81 | AATTCGACTTGGGTTCTAACCTGTTGCCT (site AATTCGACTAG) | 0.399
82 | AATTCGACTTGGGTTCTAACCTGTTGCCT (site ACTTCGACTAG) | 0.0747
